In patent publication US20230382911A1 (Hoffmann-La Roche Inc., priority 2021, published 2023):

Biological target: Recombinant human Mat2a (Homo sapiens (Human), UniProt P31153)
Experiment: Determination of Mat2A activity: 384 well format absorbance-based Mat2A inhibition assay
Format: biochemical
Settings: 12.5 nM Mat2A, 100 μM ATP and Methionine, 2% DMSO, 120 minutes at RT, Biomol Green, absorbance at 635 nm
Description: Determination of Mat2A Activity
Measurement of Mat2A inhibition is performed in 384 well format absorbance-based assay.
Recombinant human Mat2a (12.5 nM) and serial diluted compounds in DMSO (range of concentrations from 10 μM to […]) or controls (DMSO) are incubated for 15 minutes at room temperature (RT) in assay buffer containing 50 mM HEPES pH 7.5, 50 mM KCl, 50 mM MgCl2, 0.01% Tween 20 and 10 mM DTT. The reaction is initiated by the addition of the combined substrates ATP and Methionine, each at a final concentration of 100 μM. Final assay condition are 12.5 nM Mat2A, 100 μM ATP and Methionine Substrates and 2% DMSO. After 120 minutes of incubation at RT, the reaction is stopped by the addition of Biomol Green. The absorbance signal is measured at λ=635 nm with a multiplate reader (BMG Pherastar reader or equivalent) after 30 min of equilibration at RT.

Chain of Recombinant human Mat2a (P31153 whole entry): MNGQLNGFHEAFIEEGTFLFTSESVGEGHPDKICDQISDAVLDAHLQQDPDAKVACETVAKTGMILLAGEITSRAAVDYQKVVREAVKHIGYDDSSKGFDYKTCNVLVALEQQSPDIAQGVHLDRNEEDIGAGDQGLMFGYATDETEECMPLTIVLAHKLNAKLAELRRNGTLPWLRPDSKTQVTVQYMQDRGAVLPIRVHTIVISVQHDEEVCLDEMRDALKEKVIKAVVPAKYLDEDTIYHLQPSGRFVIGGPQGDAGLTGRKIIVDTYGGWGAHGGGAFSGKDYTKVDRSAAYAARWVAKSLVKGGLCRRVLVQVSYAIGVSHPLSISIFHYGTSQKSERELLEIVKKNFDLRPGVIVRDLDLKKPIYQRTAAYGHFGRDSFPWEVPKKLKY

`Cc1ccccc1C(=O)n1nc(N)c2ccc([C@H]3C[C@@H]3C)nc21` (racemic) [Example 33, (3-amino-6-((1RS,2RS)-2-methylcyclopropyl)-1H-pyrazolo[3,4-b]pyridin-1-yl)(o-tolyl)methanone] showed an IC50 of 0.028 µM.

`COc1ccccc1C(=O)n1nc(N)c2ccc([C@H]3C[C@@H]3C)nc21` (racemic) [Example 34, (3-amino-6-((1RS,2RS)-2-methylcyclopropyl)-1H-pyridin-3-pyrazolo[3,4-b]pyridin-1-yl)(2-methoxyphenyl)methanone] gave an IC50 of 0.029 µM.

`COc1ccccc1C(=O)n1nc(N)c2ccc([C@H]3C[C@@H]3F)nc21` (racemic) [Example 39, (3-amino-6-((1RS,2SR)-2-fluorocyclopropyl)-1H-pyrazolo[3,4-b]pyridin-1-yl)(2-methoxyphenyl)methanone] showed an IC50 of 0.064 µM.

With `COc1ccccc1C(=O)n1nc(N)c2ccc([C@@H]3C[C@H]3C(F)(F)F)nc21` (racemic) [Example 42, [3-amino-6-[(1RS,2RS)-2-(trifluoromethyl)cyclopropyl]pyrazolo[3,4-b]pyridin-1-yl]-(2-methoxyphenyl)methanone] the IC50 was 0.2 µM.

With `COc1ccccc1C(=O)n1nc(N)c2ccc(N3C[C@@H]4CC[C@H]3C4)nc21` (racemic) [Example 51, [3-amino-6-[(1RS,4SR)-3-azabicyclo[2.2.1]heptan-3-yl]pyrazolo[3,4-b]pyridin-1-yl]-(2-methoxyphenyl)methanone] the IC50 was 0.17 µM.

Work on `C[C@H]1C(=O)NCC[C@H]1C(=O)n1nc(N)c2ccc(C3CC3)nc21` (racemic) [Example 59, (3RS,4RS)-4-(3-amino-6-cyclopropylpyrazolo[3,4-b]pyridine-1-carbonyl)-3-methylpiperidin-2-one] yielded an IC50 of 0.033 µM.

Compound `C[C@H]1OCC[C@H]1C(=O)n1nc(N)c2ccc(C3CC3)nc21` (racemic) [Example 65, (3-amino-6-cyclopropyl-1H-pyrazolo[3,4-b]pyridin-1-yl)((2SR,3RS)-2-methyltetrahydrofuran-3-methyloxolane-2-yl)methanone] has an IC50 of 0.036 µM.

Compound `COc1ccccc1C(=O)n1nc(N)c2ccc(-c3ccccc3)nc21` [Example 1, (3-amino-6-phenyl-1H-pyrazolo[3,4-b]pyridin-1-yl)(2-methoxyphenyl)methanone] has an IC50 of 0.092 µM.

`COc1ccccc1C(=O)n1nc(N)c2ccc(CC(C)C)nc21` [Example 2, (3-amino-6-isobutyl-1H-pyrazolo[3,4-b]pyridin-1-yl)(2-methoxyphenyl)methanone] was tested, and the IC50 was 0.11 µM.

For `COc1ccccc1C(=O)n1nc(N)c2ccc(N3CCCC3)nc21` [Example 3, (3-amino-6-(pyrrolidin-1-yl)-1H-pyrazolo[3,4-b]pyridin-1-yl)(2-methoxyphenyl)methanone], the IC50 was 0.053 µM.

In the case of `Nc1nn(C(=O)c2ccccc2Cl)c2nc(N3CCCC3)ccc12` [Example 4, (3-amino-6-(pyrrolidin-1-yl)-1H-pyrazolo[3,4-b]pyridin-1-yl)(2-chlorophenyl)methanone], the IC50 is reported as 0.14 µM.

With `Cc1ccccc1C(=O)n1nc(N)c2ccc(N3CCCC3)nc21` [Example 5, (3-amino-6-(pyrrolidin-1-yl)-1H-pyrazolo[3,4-b]pyridin-1-yl)(o-tolyl)methanone] the IC50 was 0.094 µM.

For `COc1ccccc1C(=O)n1nc(N)c2ccc(C3=CCCCC3)nc21` [Example 6, [3-amino-6-(cyclohexen-1-yl)pyrazolo[3,4-b]pyridin-1-yl]-(2-methoxyphenyl)methanone], the IC50 was 0.11 µM.

`COc1ccccc1C(=O)n1nc(N)c2ccc(C3CC3)nc21` [Example 7, (3-amino-6-cyclopropylpyrazolo[3,4-b]pyridin-1-yl)-(2-methoxyphenyl)methanone] showed an IC50 of 0.12 µM.

In the case of `COc1ccccc1C(=O)n1nc(N)c2cc(Cl)c(C3CC3)nc21` [Example 8, (3-amino-5-chloro-6-cyclopropyl-1H-pyrazolo[3,4-b]pyridin-1-yl)(2-methoxyphenyl)methanone], the IC50 is reported as 0.056 µM.

`Cc1ccccc1C(=O)n1nc(N)c2cc(Cl)c(C3CC3)nc21` [Example 9] was tested, and the IC50 was 0.39 µM.

Compound `COc1ccccc1C(=O)n1nc(N)c2cc(F)c(-c3ccccc3)nc21` [Example 10, (3-amino-5-fluoro-6-phenyl-1H-pyrazolo[3,4-b]pyridin-1-yl)(2-methoxyphenyl)methanone] has an IC50 of 0.28 µM.

`Nc1nn(C(=O)c2ccccc2Cl)c2nc(N3CCCC3)c(F)cc12` [Example 12, (3-amino-5-fluoro-6-(pyrrolidin-1-yl)-1H-pyrazolo[3,4-b]pyridin-1-yl)(2-chlorophenyl)methanone] was tested, and the IC50 was 0.14 µM.

Compound `Cc1ccccc1C(=O)n1nc(N)c2cc(F)c(N3CCCC3)nc21` [Example 13, (3-amino-5-fluoro-6-(pyrrolidin-1-yl)-1H-pyrazolo[3,4-b]pyridin-1-yl)(o-tolyl)methanone] has an IC50 of 0.11 µM.

In the case of `COc1ccccc1C(=O)n1nc(N)c2cc(F)c(N3CC(F)(F)C3)nc21` [Example 14, (3-amino-6-(3,3-difluoroazetidin-1-yl)-5-fluoro-1H-pyrazolo[3,4-b]pyridin-1-yl)(2-methoxyphenyl)methanone], the IC50 is reported as 0.095 µM.

For `COc1ccccc1C(=O)n1nc(N)c2ccc(C(C)(C)C)nc21` [Example 15, (3-amino-6-(tert-butyl)-1H-pyrazolo[3,4-b]pyridin-1-yl)(2-methoxyphenyl)methanone], the IC50 was 0.099 µM.

For `COc1ccccc1C(=O)n1nc(N)c2cnc(N3CCCC3)nc21` [Example 16, (3-amino-6-(pyrrolidin-1-yl)-1H-pyrazolo[3,4-d]pyrimidin-1-yl)(2-methoxyphenyl)methanone], the IC50 was 0.065 µM.

`Cc1ccccc1C(=O)n1nc(N)c2cnc(N3CCCC3)nc21` [Example 17, (3-amino-6-(pyrrolidin-1-yl)-1H-pyrazolo[3,4-d]pyrimidin-1-yl)(o-tolyl)methanone] showed an IC50 of 0.28 µM.

In the case of `Nc1nn(C(=O)c2ccccc2Cl)c2nc(N3CCCC3)ncc12` [Example 18, (3-amino-6-(pyrrolidin-1-yl)-1H-pyrazolo[3,4-d]pyrimidin-1-yl)(2-chlorophenyl)methanone], the IC50 is reported as 0.35 µM.

In the case of `Nc1nn(C(=O)c2cccc3c2OCO3)c2nc(C3CC3)ccc12` [Example 19, (3-amino-6-cyclopropylpyrazolo[3,4-b]pyridin-1-yl)-(1,3-benzodioxol-4-yl)methanone], the IC50 is reported as 0.41 µM.

In the case of `Cc1ccccc1C(=O)n1nc(N)c2ccc(C3CC3)nc21` [Example 20, (3-amino-6-cyclopropylpyrazolo[3,4-b]pyridin-1-yl)-(2-methylphenyl)methanone], the IC50 is reported as 0.16 µM.

Work on `COc1ccccc1C(=O)n1nc(N)c2cc3c(nc21)CC(C)(C)CC3` [Example 21, (3-amino-7,7-dimethyl-5,6,7,8-tetrahydro-1H-pyrazolo[3,4-b]quinolin-1-yl)(2-methoxyphenyl)methanone] yielded an IC50 of 0.14 µM.

`COc1ccccc1C(=O)n1nc(N)c2ccc(C3=CCCCO3)nc21` [Example 22, [3-amino-6-(3,4-dihydro-2H-pyran-6-yl)pyrazolo[3,4-b]pyridin-1-yl]-(2-methoxyphenyl)methanone] gave an IC50 of 0.44 µM.

`COc1ccccc1C(=O)n1nc(N)c2ccc(C3=CCCC3)nc21` [Example 23, [3-amino-6-(cyclopenten-1-yl)pyrazolo[3,4-b]pyridin-1-yl]-(2-methoxyphenyl)methanone] showed an IC50 of 0.02 µM.

`COc1ccccc1C(=O)n1nc(N)c2ccc(N3CCC3)nc21` [Example 24, (3-amino-6-(azetidin-1-yl)-1H-pyrazolo[3,4-b]pyridin-1-yl)(2-methoxyphenyl)methanone] was tested, and the IC50 was 0.3 µM.
